Paper PMC9090141 (Pediatric blood & cancer, 2021)
Where “and” joins values, the source holds several entries; their conditions need not be identical. Equal values may be shown once. Entries after “also recorded” stand apart in the source; their conditions may differ. Where a name gives a salt, the structure may show the parent alone.

What was measured:
[1] = tested on: recurrent or refractory solid and CNS tumors; experiment: Radiographic antitumor response; format: in vivo, human
pCHK1 = settings: cited from earlier work
[2] = in vivo; cited from earlier work
[3] = tested on: adults with advanced or metastatic solid tumors; settings: cited from earlier work
[4] = Plasma pharmacokinetics in cycle 1; format: in vivo, human; settings: for Tmax / half-life / concentration at 24 h / AUC(0-inf) / AUC(0-t) / Cmax: plasma; for concentration at 24 h: RP2D (150 mg/m^2)
[5] = 25 patients evaluable for response
[6] = 80 mg/m^2 IV over 60 min, first dose cycle 1, 6 patients
[7] = 100 mg/m^2 IV over 60 min, first dose cycle 1, 6 patients
[8] = 125 mg/m^2 IV over 60 min, first dose cycle 1, 5 patients
[9] = 150 mg/m^2 IV over 60 min, first dose cycle 1, 12 patients
[10] = All Patients (80-150 mg/m^2), first dose cycle 1, 29 patients

Question: With `COc1cccc(OCCCN)c1-c1cc(Nc2cnc(C#N)cn2)n[nH]1` [prexasertib, Prexasertib mesylate monohydrate] as the compound, how does the “best overall response (BOR)” value [1, 5] read?
Answer: stable disease in 3 patients; also recorded: Three patients had a best overall response (BOR) of stable disease

Question: What about the objective responses [1, 5] of the same compound?
Answer: no objective responses

Question: What about the “duration of stable disease” value ([1]; patient with (anaplastic) ependymoma, dose level 2) of the same compound?
Answer: 3 cycles

Question: What about the “duration of stable disease” value ([1]; patient with hepatocellular carcinoma, dose level 1) of the same compound?
Answer: 5 cycles

Question: What about the “duration of stable disease” value ([1]; patient with undifferentiated sarcoma, dose level 3) of the same compound?
Answer: 5 cycles

Question: What about the “median AUC0–72h predicted for efficacy” value (pCHK1; Calu-6 preclinical PK/PD model) of the same compound?
Answer: 1896 ng·h/mL

Question: What about the “IC50 for pCHK1 inhibition (plasma concentration)” value (pCHK1) of the same compound?
Answer: 14.1 ng/ml

Question: And the CNS penetration [2]?
Answer: adequate CNS penetration

Question: What about the “dose-limiting toxicities at the adult RP2D” value ([3]; 105 mg/m^2 IV once every 14 days) of the same compound?
Answer: no dose-limiting toxicities

Question: What about the “adult recommended Phase 2 dose (RP2D)” value ([3]; IV once every 14 days) of the same compound?
Answer: 105 mg/m^2

Question: And the CLp [4, 6]?
Answer: 48.2 ± 11.5 L/hr/m^2

Question: What about the Vss [4, 6] of the same compound?
Answer: 245 ± 67 L/m^2

Question: And the CLp [4, 7]?
Answer: 45.1 L/hr/m^2 and 45.1 ± 12.6 L/hr/m^2

Question: And the Vss [4, 7]?
Answer: 332 ± 85 L/m^2

Question: What about the CLp [4, 8] of the same compound?
Answer: 49.3 ± 10.3 L/hr/m^2

Question: What about the Vss [4, 8] of the same compound?
Answer: 292 ± 169 L/m^2

Question: And the CLp [4, 9]?
Answer: 44.4 L/hr/m^2 and 44.4 ± 13.5 L/hr/m^2

Question: And the Vss [4, 9]?
Answer: 257 ± 98 L/m^2

Question: And the “exposure relative to the adult RP2D” value ([4]; 150 mg/m^2 vs RP2D from either adult study)?
Answer: twice the exposure

Question: What about the “dose proportionality / linearity of PK” value ([4]; 80–150 mg/m^2 dose range, single dose) of the same compound?
Answer: linear; also recorded: proportional to dose

Question: What about the CLp [4, 10] of the same compound?
Answer: 46.1 ± 12.0 L/hr/m^2

Question: What about the Vss [4, 10] of the same compound?
Answer: 276 ± 102 L/m^2

Question: What about the BSA-adjusted plasma clearance ([4]; children <12 years (N=16)) of the same compound?
Answer: 49.4 ± 10.0 L/hr/m^2

Question: And the plasma clearance ([4]; females (N=9))?
Answer: 47.1 ± 9.7 L/hr/m^2

Question: What about the “time plasma concentrations maintained above the IC50 for pCHK1 inhibition” value ([4]; human, in vivo) of the same compound?
Answer: approximately 24 hours

Question: What about the Tmax ([4]; human, intravenous) of the same compound?
Answer: 1.2 ± 0.5 h

Question: What about the half-life ([4]; human, intravenous) of the same compound?
Answer: 8.9 ± 3.4 h

Question: And the concentration at 24 h ([4]; human, intravenous, 150 mg/m^2, median plasma concentration 24 hours after the first dose (C-24h))?
Answer: 13.4 ng/mL

Question: And the concentration at 24 h ([4]; human, intravenous, 150 mg/m^2, range of plasma concentration 24 hours after the first dose (C-24h))?
Answer: 7.6 to 43.6 ng/mL

Question: What about the AUC(0-inf) ([4]; human, iv, 80 mg/m2) of the same compound?
Answer: 1730 ± 387 ng·h/mL

Question: What about the AUC(0-t) ([4]; human, iv, 80 mg/m2) of the same compound?
Answer: 1620 ± 358 ng·h/mL

Question: What about the Cmax ([4]; human, iv, 80 mg/m2) of the same compound?
Answer: 858 ± 311 ng/mL

Question: And the Tmax ([4]; human, iv, 80 mg/m2)?
Answer: 1.4 ± 0.9 h

Question: And the half-life ([4]; human, iv, 80 mg/m2)?
Answer: 7.6 ± 2.3 h

Question: What about the AUC(0-inf) ([4]; human, iv, 100 mg/m2) of the same compound?
Answer: 2380 ± 712 ng·h/mL

Question: And the AUC(0-t) ([4]; human, iv, 100 mg/m2)?
Answer: 2010 ± 416 ng·h/mL

Question: And the Cmax ([4]; human, iv, 100 mg/m2)?
Answer: 984 ± 289 ng/mL

Question: And the Tmax ([4]; human, iv, 100 mg/m2)?
Answer: 1.1 ± 0.2 h

Question: What about the half-life ([4]; human, iv, 100 mg/m2) of the same compound?
Answer: 10 ± 3.9 h

Question: And the AUC(0-inf) ([4]; human, iv, 125 mg/m2)?
Answer: 2640 ± 632 ng·h/mL

Question: What about the AUC(0-t) ([4]; human, iv, 125 mg/m2) of the same compound?
Answer: 2460 ± 545 ng·h/mL

Question: And the Cmax ([4]; human, iv, 125 mg/m2)?
Answer: 1230 ± 212 ng/mL

Question: What about the Tmax ([4]; human, iv, 125 mg/m2) of the same compound?
Answer: 1.1 ± 0.1 h

Question: And the half-life ([4]; human, iv, 125 mg/m2)?
Answer: 8.5 ± 4.5 h

Question: And the AUC(0-inf) ([4]; human, iv, 150 mg/m2)?
Answer: 3680 ± 1060 ng·h/mL

Question: And the AUC(0-t) ([4]; human, iv, 150 mg/m2)?
Answer: 3360 ± 898 ng·h/mL

Question: And the Cmax ([4]; human, iv, 150 mg/m2)?
Answer: 1700 ± 822 ng/mL

Question: What about the Tmax ([4]; human, iv, 150 mg/m2) of the same compound?
Answer: 1.2 ± 0.5 h

Question: And the half-life ([4]; human, iv, 150 mg/m2)?
Answer: 9.2 ± 3.5 h

Question: And the plasma clearance ([4]; males (N=20))?
Answer: 45.6 ± 13.1 L/hr/m^2

Question: What about the BSA-adjusted plasma clearance ([4]; ≥12 years (N=13)) of the same compound?
Answer: 42.2 ± 13.3 L/hr/m^2
